Reference: patent publication US20260166039A1 (SCHRÖDINGER, INC., priority 2022, published 2026)

Biological target: T1, Wee1 kinase domain (Homo sapiens, UniProt P30291)
T1 construct: Wee1 kinase domain was purchased from Carna (catalog #05-177); purchased Carna 05-177
Assay: Wee1 Kinase Biochemical Assay (ADP-Glo)
Conditions: Wee1 kinase domain, 15 uM ATP, ADP-Glo
Outline: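 Poly(Lys,Tyr 4:1) phosphorylation by the kinase domain is followed as ADP output (ADP-Glo) after 4 h at 25 °C, with ATP at 15 uM. Values are percent inhibition between vehicle and full-inhibition controls.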

T1 sequence (P30291 299-569 limits assumed): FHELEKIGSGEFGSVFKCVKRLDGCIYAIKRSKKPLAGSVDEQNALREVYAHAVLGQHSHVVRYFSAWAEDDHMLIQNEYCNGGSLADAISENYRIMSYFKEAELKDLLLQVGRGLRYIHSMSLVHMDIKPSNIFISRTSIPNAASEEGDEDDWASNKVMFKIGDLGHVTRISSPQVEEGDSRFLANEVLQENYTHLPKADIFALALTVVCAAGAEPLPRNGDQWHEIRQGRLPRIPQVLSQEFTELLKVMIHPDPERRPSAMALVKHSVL

| IC50 | Structure (SMILES) |
| --- | --- |
| 10 to 100 nM | Cc1cc(Nc2ncc3c(n2)N(c2cccc(N4C(=O)OC[C@@H]4C)n2)[C@H]2CC(C)(C)OC[C@@]32C)ccc1O[C@H]1CCN(C)C1 (single isomer, unassigned) [Example 344] |
| 10 to 100 nM | CNCc1cccc(N2c3nc(Nc4ccc([C@@H]5CCCO5)cc4)ncc3C3(C)COC(C)(C)C[C@H]23)n1 (single isomer, unassigned) [Example 57] |
| 100 to 1000 nM | CN1CC2(C1)CN(c1ccc(Nc3ncc4c(n3)N(c3cccc(N=S(C)(C)=O)n3)[C@H]3CC(C)(C)OC[C@@]43C)cc1)C2 (single isomer, unassigned) [Example 220] |
| 100 to 1000 nM | CN1CCN(c2ccc(Nc3ncc4c(n3)N(c3cccc(N=S(C)(C)=O)n3)[C@H]3CC(C)(C)OC[C@@]43C)cc2)CC1 [Example 99, dimethyl((6-((4bS,8aS)-4b,7,7-trimethyl-2-((4-(4-methylpiperazin-1-yl)phenyl)amino)-4b,7,8,8a-tetrahydropyrano[3′,4′:4,5]pyrrolo[2,3-d]pyrimidin-9(5H)-yl)pyridin-2-yl)imino)-16-sulfanone] |
| 10 to 100 nM | C[C@H]1COC(=O)N1c1cccc(N2c3nc(Nc4ccn(C5CCN(C)CC5)c(=O)c4)ncc3[C@]3(C)COC(C)(C)C[C@H]23)n1 (single isomer, unassigned) [Example 272] |
| 10 to 100 nM | CN1Cc2cc(Nc3ncc4c(n3)N(c3cccc(N=S(C)(C)=O)n3)[C@H]3CC(C)(C)OC[C@@]43C)ccc2C2(CC2)C1 (single isomer, unassigned) [Example 108] |
| 100 to 1000 nM | CN1CC[C@H](n2cc(Nc3ncc4c(n3)N(c3cccc(N=S(C)(C)=O)n3)[C@H]3CC(C)(C)OC[C@@]43C)cn2)C1 (single isomer, unassigned) [Example 197] |
| ≥ 1000 nM | CNC(=O)c1ccc(Nc2ncc3c(n2)N(c2cccc(N=S(C)(C)=O)n2)C2CC(C)(C)OCC32C)cc1F (single isomer, unassigned) [Example 118] |
| 100 to 1000 nM | CN1CCC(n2cc(Nc3ncc4c(n3)N(c3cccc(N=S(C)(C)=O)n3)[C@H]3CC(C)(C)OC[C@@]43C)cn2)C1 (stereo partly drawn) [Example 195, dimethyl((6-((4bS,8aS)-4b,7,7-trimethyl-2-((1-((R)-1-methylpyrrolidin-3-yl)-1H-pyrazol-4-yl)amino)-4b,7,8,8a-tetrahydropyrano[3′,4′:4,5]pyrrolo[2,3-d]pyrimidin-9(5H)-yl)pyridin-2-yl)imino)-16-sulfanone] |
| < 10 nM | CC1(C)C[C@H]2N(c3cccc(N=S(C)(C)=O)n3)c3nc(Nc4ccn5ncnc5c4)ncc3[C@@]2(C)CO1 (single isomer, unassigned) [Example 385] |
| 10 to 100 nM | C[C@H]1COC(=O)N1c1cccc(N2c3nc(Nc4ccc([C@@H]5CCNC5)cc4)ncc3[C@]3(C)COC(C)(C)C[C@H]23)n1 (single isomer, unassigned) [Example 274] |
| < 10 nM | Cn1ccc2nc(Nc3ncc4c(n3)N(c3cccc(N=S(C)(C)=O)n3)[C@@H]3CC(C)(C)OC[C@]43C)cnc21 (single isomer, unassigned) [Example 383] |
| 10 to 100 nM | CN1CCc2ccc(Nc3ncc4c(n3)N(c3cccc(N=S(C)(C)=O)n3)[C@H]3CC(C)(C)OC[C@@]43C)cc2C1 (single isomer, unassigned) [Example 110] |
| < 10 nM | Cc1cc(Nc2ncc3c(n2)N(c2cccc(N4C(=O)OC[C@@H]4C)n2)[C@H]2CC(C)(C)OC[C@@]32C)ccc1C1CCN(C)CC1 (single isomer, unassigned) [Example 239] |
| 10 to 100 nM | Cc1cc(Nc2ncc3c(n2)N(c2cccc(N=S(C)(C)=O)n2)[C@H]2CC(C)(C)OC[C@@]32C)ccc1[C@H]1CCN(C)C1 (single isomer, unassigned) [Example 148] |

Same assay, conditions: class symbols; 1 nM Wee1 enzyme, 15 uM ATP, 4 hours at 25° C.

| IC50 | Structure (SMILES) |
| --- | --- |
| 100 to 1000 nM | CN1CC(c2ccc(Nc3ncc4c(n3)N(c3cccc(N5CCOC5=O)n3)[C@H]3CC(C)(C)OC[C@@]43C)cc2)C1 [Example 699, 3-(6-((4bS,8aS)-4b,7,7-trimethyl-2-((4-(1-methylazetidin-3-yl)phenyl)amino)-4b,7,8,8a-tetrahydropyrano[3′,4′:4,5]pyrrolo[2,3-d]pyrimidin-9(5H)-yl)pyridin-2-yl)oxazolidin-2-one] |
| 10 to 100 nM | CNCc1cccc(N2c3nc(NC(=O)[C@H]4C[C@@H]4c4ccccc4)ncc3[C@@]3(C)COC(C)(C)C[C@@H]23)n1 [Example 761, (1S,2S)-2-phenyl-N-((4bR,8aR)-4b,7,7-trimethyl-9-(6-((methylamino)methyl)pyridin-2-yl)-4b,5,7,8,8a,9-hexahydropyrano[3′,4′:4,5]pyrrolo[2,3-d]pyrimidin-2-yl)cyclopropane-1-carboxamide] |
| < 10 nM | C[C@H]1COC(=O)N1c1cccc(N2c3nc(Nc4ccc([C@@H]5CCN(C)C5)cc4)ncc3[C@@]3(C)COCC[C@@H]23)n1 [Example 794, (S)-4-methyl-3-(6-((4bR,8aR)-4b-methyl-2-((4-((S)-1-methylpyrrolidin-3-yl)phenyl)amino)-4b,7,8,8a-tetrahydropyrano[3′,4′:4,5]pyrrolo[2,3-d]pyrimidin-9(5H)-yl)pyridin-2-yl)oxazolidin-2-one] |
| 100 to 1000 nM | CNCc1cccc(N2c3nc(Nc4ccc(-c5cnn(C)c5)c(C)c4)ncc3[C@]3(C)COC(C)(C)C[C@H]23)n1 (single isomer, unassigned) [Example 463] |
| < 10 nM | CC[C@]1(O)CCc2ccc(N3c4nc(Nc5ccn(C6CCN(C)CC6)c(=O)c5)ncc4[C@@]4(C)COC(C)(C)C[C@@H]34)nc21 [Example 811, 4-(((4bR,8aR)-9-((S)-7-ethyl-7-hydroxy-6,7-dihydro-5H-cyclopenta[b]pyridin-2-yl)-4b,7,7-trimethyl-4b,5,7,8,8a,9-hexahydropyrano[3′,4′:4,5]pyrrolo[2,3-d]pyrimidin-2-yl)amino)-1-(1-methylpiperidin-4-yl)pyridin-2(1H)-one] |
| < 10 nM | CC[C@@]1(O)CCc2ccc(N3c4nc(Nc5ccc(N6C[C@H]7C[C@@H]6CN7C)cc5)ncc4[C@@]4(C)COC(C)(C)C[C@@H]34)nc21 [Example 790, (R)-7-ethyl-2-((4bR,8aR)-4b,7,7-trimethyl-2-((4-((1R,4R)-5-methyl-2,5-diazabicyclo[2.2.1]heptan-2-yl)phenyl)amino)-4b,7,8,8a-tetrahydropyrano[3′,4′:4,5]pyrrolo[2,3-d]pyrimidin-9(5H)-yl)-6,7-dihydro-5H-cyclopenta[b]pyridin-7-ol] |
| 100 to 1000 nM | CN1C[C@@H]2CN(c3ccc(Nc4ncc5c(n4)N(c4cccc(C(C)(C)O)n4)[C@H]4CC(C)(C)OC[C@@]54C)cc3)C[C@@H]2C1 (single isomer, unassigned) [Example 445] |
| < 10 nM | CN1CCN(c2ccc(Nc3ncc4c(n3)N(c3cccc(N=S(C)(C)=O)n3)[C@@H]3CC(C)(C)OC[C@]43C)cn2)CC1 (single isomer, unassigned) [Example 509] |
| < 10 nM | CN1CCC(n2ccc(Nc3ncc4c(n3)N(c3ccccn3)[C@@H]3CC(C)(C)OC[C@]43C)cc2=O)CC1 (single isomer, unassigned) [Example 806] |
| 100 to 1000 nM | CN[C@H]1CCc2ccc(N3c4nc(Nc5ccc(N6CCOCC6)cc5)ncc4[C@@]4(C)COC(C)(C)C[C@@H]34)nc21 (single isomer, unassigned) [Example 552] |
| ≥ 1000 nM | CN1CCC(c2ccc(Nc3ncc4c(n3)N(c3cccc(N=S(C)(C)=O)c3)[C@H]3CC(C)(C)OC[C@@]43C)cn2)CC1 [Example 709, dimethyl((3-((4bS,8aS)-4b,7,7-trimethyl-2-((6-(1-methylpiperidin-4-yl)pyridin-3-yl)amino)-4b,7,8,8a-tetrahydropyrano[3′,4′:4,5]pyrrolo[2,3-d]pyrimidin-9(5H)-yl)phenyl)imino)-16-sulfanone] |
| 10 to 100 nM | CN1C[C@@H]2C[C@H]1CN2c1ccc(Nc2ncc3c(n2)N(c2cccc(N4CCOC4=O)n2)[C@H]2CC(C)(C)OC[C@@]32C)cc1F [Example 677, 3-(6-((4bS,8aS)-2-((3-fluoro-4-((1S,4S)-5-methyl-2,5-diazabicyclo[2.2.1]heptan-2-yl)phenyl)amino)-4b,7,7-trimethyl-4b,7,8,8a-tetrahydropyrano[3′,4′:4,5]pyrrolo[2,3-d]pyrimidin-9(5H)-yl)pyridin-2-yl)oxazolidin-2-one] |
| 10 to 100 nM | CC1(C)C[C@@H]2N(c3cccc([C@H]4COCCN4)n3)c3nc(Nc4ccc(N5CCOCC5)cc4)ncc3[C@]2(C)CO1 [Example 732, (4bS,8aS)-4b,7,7-trimethyl-9-(6-((S)-morpholin-3-yl)pyridin-2-yl)-N-(4-morpholinophenyl)-4b,5,7,8,8a,9-hexahydropyrano[3′,4′:4,5]pyrrolo[2,3-d]pyrimidin-2-amine] |
| 10 to 100 nM | CN1CC[C@@H](c2ccc(Nc3ncc4c(n3)N(c3cccc(N5CCOC5=O)n3)[C@H]3CC(C)(C)OC[C@@]43C)cc2)C1 (single isomer, unassigned) [Example 604] |
| 100 to 1000 nM | CN1CC2(C1)CN(c1ccc(Nc3ncc4c(n3)N(c3cccc(N5CCCC5=O)n3)[C@H]3CC(C)(C)OC[C@@]43C)cc1)C2 [Example 691, 1-(6-((4bS,8aS)-4b,7,7-trimethyl-2-((4-(6-methyl-2,6-diazaspiro[3.3]heptan-2-yl)phenyl)amino)-4b,7,8,8a-tetrahydropyrano[3′,4′:4,5]pyrrolo[2,3-d]pyrimidin-9(5H)-yl)pyridin-2-yl)pyrrolidin-2-one] |
| 100 to 1000 nM | CN1CC[C@@H]2CN(c3ccc(Nc4ncc5c(n4)N(c4cccc(C(C)(C)O)n4)[C@H]4CC(C)(C)OC[C@@]54C)cc3)C[C@@H]21 (single isomer, unassigned) [Example 438] |
| 100 to 1000 nM | CN[C@]1(C)CCc2ccc(N3c4nc(Nc5ccc(N6CCOCC6)cc5)ncc4[C@]4(C)COC(C)(C)C[C@H]34)nc21 (single isomer, unassigned) [Example 570] |
| 100 to 1000 nM | CN1C[C@H]2C[C@@H]1CN2c1ccc(Nc2ncc3c(n2)N(c2cccc(C(C)(C)O)n2)[C@H]2CC(C)(C)OC[C@@]32C)cc1F (single isomer, unassigned) [Example 428] |
